Source: PMC4770715, “LIM kinase inhibitors disrupt mitotic microtubule organization and impair tumor cell proliferation” (Oncotarget, 2015)

Tests used:
Test in all cases: biochemical
Set-up in all cases: KINOMEscan active-site competition binding, percent of control (100 = no competition)
Conditions in all cases: competition binding, percent control
[1] = molecular target: T1, YES (Homo sapiens, UniProt P07947)
T1 construct: gene YES1

[2] = molecular target: KIT(D816V) (Homo sapiens, UniProt P10721, D816V)
[3] = molecular target: BLK (Homo sapiens, UniProt P51451)
[4] = molecular target: MAK (Homo sapiens, UniProt P20794)
[5] = molecular target: T2, AMPK-alpha2 (Homo sapiens, UniProt P54646)
T2 construct: gene PRKAA2

[6] = molecular target: TEC (Homo sapiens, UniProt P42680)
[7] = molecular target: SIK2 (Homo sapiens, UniProt Q9H0K1)
SIK2, sequence (Q9H0K1 whole entry): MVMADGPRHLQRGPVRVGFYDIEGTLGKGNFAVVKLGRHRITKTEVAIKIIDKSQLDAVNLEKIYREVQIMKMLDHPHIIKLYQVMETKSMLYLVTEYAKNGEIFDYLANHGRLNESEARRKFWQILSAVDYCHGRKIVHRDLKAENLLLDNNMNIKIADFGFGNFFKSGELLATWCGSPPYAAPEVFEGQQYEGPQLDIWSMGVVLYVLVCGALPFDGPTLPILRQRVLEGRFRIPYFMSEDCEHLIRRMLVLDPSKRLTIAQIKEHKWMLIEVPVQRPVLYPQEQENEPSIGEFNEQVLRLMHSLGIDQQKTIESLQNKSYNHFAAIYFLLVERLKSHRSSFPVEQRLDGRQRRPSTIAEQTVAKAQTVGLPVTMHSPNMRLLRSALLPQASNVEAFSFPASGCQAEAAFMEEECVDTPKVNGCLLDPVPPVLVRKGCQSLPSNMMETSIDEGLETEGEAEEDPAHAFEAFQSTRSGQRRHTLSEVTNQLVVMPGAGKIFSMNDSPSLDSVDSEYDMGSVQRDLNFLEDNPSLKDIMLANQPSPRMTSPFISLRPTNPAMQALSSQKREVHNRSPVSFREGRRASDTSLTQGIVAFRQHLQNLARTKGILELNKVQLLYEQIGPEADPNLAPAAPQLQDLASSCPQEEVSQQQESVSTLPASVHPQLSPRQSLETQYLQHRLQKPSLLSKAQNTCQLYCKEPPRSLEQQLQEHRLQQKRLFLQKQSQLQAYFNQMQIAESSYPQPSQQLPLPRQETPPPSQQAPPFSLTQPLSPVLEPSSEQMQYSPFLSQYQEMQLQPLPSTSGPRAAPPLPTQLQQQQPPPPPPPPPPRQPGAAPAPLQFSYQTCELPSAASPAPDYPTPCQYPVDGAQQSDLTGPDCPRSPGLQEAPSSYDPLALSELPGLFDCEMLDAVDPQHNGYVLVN

[8] = molecular target: PIK3CA(E545A) (Homo sapiens, UniProt P42336, E545A)
[9] = molecular target: T3, DCAMKL3 (Homo sapiens, UniProt Q9C098)
T3 construct: gene DCLK3

[10] = molecular target: SRPK1 (Homo sapiens, UniProt Q96SB4)
SRPK1, sequence (Q96SB4 whole entry): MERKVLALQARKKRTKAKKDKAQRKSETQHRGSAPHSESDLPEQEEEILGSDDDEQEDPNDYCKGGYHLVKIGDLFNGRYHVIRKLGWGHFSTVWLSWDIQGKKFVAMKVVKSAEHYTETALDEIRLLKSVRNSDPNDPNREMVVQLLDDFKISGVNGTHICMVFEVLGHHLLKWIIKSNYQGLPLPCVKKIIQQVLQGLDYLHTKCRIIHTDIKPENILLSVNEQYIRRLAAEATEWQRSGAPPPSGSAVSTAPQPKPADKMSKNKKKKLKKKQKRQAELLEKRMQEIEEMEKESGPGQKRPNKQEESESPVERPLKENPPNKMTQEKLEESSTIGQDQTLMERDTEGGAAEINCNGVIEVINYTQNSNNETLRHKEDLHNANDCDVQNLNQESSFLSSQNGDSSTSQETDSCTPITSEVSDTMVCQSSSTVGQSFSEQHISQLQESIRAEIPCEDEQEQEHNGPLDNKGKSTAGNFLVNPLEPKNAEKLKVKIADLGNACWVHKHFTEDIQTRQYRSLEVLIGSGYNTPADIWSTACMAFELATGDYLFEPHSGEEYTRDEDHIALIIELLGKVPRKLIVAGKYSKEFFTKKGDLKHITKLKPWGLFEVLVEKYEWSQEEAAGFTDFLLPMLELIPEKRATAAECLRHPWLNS

[11] = molecular target: CAMK1G (Homo sapiens, UniProt Q96NX5)
CAMK1G, sequence (Q96NX5 whole entry): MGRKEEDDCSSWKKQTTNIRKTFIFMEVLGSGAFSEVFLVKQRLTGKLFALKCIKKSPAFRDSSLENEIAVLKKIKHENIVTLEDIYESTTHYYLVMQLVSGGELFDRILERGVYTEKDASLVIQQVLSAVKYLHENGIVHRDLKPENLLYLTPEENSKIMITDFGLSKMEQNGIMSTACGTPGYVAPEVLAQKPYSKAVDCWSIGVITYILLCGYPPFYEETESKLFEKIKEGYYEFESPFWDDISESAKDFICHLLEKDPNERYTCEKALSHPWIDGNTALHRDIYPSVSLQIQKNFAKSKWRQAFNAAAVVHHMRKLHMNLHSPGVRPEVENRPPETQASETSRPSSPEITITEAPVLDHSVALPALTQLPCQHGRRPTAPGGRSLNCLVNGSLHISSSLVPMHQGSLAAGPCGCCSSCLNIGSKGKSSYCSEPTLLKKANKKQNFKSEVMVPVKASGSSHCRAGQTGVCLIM

[12] = molecular target: EPHB4 (Homo sapiens, UniProt P54760)
[13] = molecular target: PIK3CA(E542K) (Homo sapiens, UniProt P42336, E542K)
[14] = molecular target: ACVR2A (Homo sapiens, UniProt P27037)
ACVR2A, sequence (P27037 whole entry): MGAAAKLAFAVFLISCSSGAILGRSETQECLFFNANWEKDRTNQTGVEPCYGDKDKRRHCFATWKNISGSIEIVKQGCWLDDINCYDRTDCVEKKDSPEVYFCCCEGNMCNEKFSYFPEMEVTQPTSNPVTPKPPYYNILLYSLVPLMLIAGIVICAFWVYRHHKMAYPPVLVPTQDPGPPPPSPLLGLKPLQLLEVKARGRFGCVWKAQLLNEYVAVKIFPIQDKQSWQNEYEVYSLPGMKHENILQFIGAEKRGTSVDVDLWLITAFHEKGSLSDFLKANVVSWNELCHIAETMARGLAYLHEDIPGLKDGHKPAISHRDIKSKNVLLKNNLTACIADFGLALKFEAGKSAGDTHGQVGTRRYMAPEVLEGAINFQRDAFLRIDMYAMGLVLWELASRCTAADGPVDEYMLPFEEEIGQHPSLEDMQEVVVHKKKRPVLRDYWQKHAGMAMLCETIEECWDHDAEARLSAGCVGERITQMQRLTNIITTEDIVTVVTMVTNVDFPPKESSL

[15] = molecular target: MKNK1 (Homo sapiens, UniProt Q9BUB5)
MKNK1, sequence (Q9BUB5 whole entry): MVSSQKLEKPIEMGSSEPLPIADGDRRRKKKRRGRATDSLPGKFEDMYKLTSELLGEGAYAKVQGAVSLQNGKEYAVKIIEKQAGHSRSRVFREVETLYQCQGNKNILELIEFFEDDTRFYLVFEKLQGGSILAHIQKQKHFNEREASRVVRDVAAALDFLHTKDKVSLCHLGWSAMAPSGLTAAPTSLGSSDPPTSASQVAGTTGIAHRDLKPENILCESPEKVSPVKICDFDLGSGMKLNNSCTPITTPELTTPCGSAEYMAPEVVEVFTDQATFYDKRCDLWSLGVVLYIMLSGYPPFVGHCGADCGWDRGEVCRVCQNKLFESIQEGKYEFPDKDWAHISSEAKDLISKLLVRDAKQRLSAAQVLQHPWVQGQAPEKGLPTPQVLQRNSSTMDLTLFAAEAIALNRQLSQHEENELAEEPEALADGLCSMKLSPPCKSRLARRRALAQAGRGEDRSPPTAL

[16] = molecular target: T4, IKK-alpha (Homo sapiens, UniProt O15111)
T4 construct: gene CHUK

[17] = molecular target: T5, MST1 (Homo sapiens, UniProt Q13043)
T5 construct: gene STK4

[18] = molecular target: ULK3 (Homo sapiens, UniProt Q6PHR2)
[19] = molecular target: DYRK2 (Homo sapiens, UniProt Q92630)
DYRK2, sequence (Q92630 whole entry): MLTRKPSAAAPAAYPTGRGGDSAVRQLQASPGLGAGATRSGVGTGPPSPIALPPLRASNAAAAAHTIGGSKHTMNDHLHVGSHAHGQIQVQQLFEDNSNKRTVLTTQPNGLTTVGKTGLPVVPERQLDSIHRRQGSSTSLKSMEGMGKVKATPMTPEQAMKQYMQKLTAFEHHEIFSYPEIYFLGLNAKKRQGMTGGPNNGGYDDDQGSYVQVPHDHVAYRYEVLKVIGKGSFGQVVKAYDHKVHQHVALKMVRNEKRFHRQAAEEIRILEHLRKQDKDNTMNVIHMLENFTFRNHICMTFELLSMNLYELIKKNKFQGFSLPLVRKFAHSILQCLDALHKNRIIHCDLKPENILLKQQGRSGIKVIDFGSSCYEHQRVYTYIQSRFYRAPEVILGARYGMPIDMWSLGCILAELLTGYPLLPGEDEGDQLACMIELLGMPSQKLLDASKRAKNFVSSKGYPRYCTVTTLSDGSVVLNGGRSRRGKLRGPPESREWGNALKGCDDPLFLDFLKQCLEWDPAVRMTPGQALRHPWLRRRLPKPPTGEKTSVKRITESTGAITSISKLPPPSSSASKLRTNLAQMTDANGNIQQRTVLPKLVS

[20] = molecular target: T6, ERK5 (Homo sapiens, UniProt Q13164)
T6 construct: gene MAPK7
T6 sequence (Q13164 whole entry): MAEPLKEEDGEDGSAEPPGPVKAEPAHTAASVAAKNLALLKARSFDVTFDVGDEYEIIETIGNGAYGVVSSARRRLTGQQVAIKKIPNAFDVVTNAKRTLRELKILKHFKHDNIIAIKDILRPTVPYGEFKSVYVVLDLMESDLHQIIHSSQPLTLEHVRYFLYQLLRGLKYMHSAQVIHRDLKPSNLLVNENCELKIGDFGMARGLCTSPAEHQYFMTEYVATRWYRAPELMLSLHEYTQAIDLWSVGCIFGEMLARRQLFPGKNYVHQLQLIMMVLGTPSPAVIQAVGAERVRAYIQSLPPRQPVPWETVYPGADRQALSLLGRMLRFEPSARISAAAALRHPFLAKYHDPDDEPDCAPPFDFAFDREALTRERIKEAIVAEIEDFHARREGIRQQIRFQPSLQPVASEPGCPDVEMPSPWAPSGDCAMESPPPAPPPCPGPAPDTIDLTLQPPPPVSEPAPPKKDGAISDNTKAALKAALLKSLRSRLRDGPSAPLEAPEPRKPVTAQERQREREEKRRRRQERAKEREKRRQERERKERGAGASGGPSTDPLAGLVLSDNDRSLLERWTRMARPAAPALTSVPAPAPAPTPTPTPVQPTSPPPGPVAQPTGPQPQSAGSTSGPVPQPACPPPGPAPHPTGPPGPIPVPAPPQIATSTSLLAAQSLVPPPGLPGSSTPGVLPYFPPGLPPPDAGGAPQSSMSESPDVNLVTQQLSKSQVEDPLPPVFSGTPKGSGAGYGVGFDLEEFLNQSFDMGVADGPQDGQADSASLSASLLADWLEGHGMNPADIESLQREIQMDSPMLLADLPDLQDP

[21] = molecular target: TSSK1B (Homo sapiens, UniProt Q9BXA7)
[22] = molecular target: T7, MEK2 (Homo sapiens, UniProt P36507)
T7 construct: gene MAP2K2

[23] = molecular target: T8, MLK3 (Homo sapiens, UniProt Q16584)
T8 construct: gene MAP3K11

T1 sequence (P07947 whole entry): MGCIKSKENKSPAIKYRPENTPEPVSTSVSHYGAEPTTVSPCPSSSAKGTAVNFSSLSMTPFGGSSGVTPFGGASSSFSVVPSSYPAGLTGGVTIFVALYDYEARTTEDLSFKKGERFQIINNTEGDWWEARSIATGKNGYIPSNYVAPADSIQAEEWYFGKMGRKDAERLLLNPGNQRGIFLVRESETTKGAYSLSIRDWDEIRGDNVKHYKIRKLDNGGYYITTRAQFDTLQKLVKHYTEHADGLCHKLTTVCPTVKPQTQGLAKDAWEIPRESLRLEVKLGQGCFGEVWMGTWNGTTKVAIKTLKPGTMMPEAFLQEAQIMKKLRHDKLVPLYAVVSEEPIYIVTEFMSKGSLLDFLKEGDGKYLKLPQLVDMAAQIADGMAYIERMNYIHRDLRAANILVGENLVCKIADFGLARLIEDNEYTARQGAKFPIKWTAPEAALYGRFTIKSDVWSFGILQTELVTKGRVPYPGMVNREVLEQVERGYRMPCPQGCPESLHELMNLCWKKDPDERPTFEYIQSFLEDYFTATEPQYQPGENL

Row | SMILES | remaining binding at 10 µM [1] [%] | remaining binding at 10 µM [2] [%] | remaining binding at 10 µM [3] [%] | remaining binding at 10 µM [4] [%] | remaining binding at 10 µM [5] [%] | remaining binding at 10 µM [6] [%] | remaining binding at 10 µM [7] [%] | remaining binding at 10 µM [8] [%] | remaining binding at 10 µM [9] [%] | remaining binding at 10 µM [10] [%] | remaining binding at 10 µM [11] [%] | remaining binding at 10 µM [12] [%] | remaining binding at 10 µM [13] [%] | remaining binding at 10 µM [14] [%] | remaining binding at 10 µM [15] [%] | remaining binding at 10 µM [16] [%] | remaining binding at 10 µM [17] [%] | remaining binding at 10 µM [18] [%] | remaining binding at 10 µM [19] [%] | remaining binding at 10 µM [20] [%] | other results
1 | COc1ccc(-c2cnccc2-c2cnc(NC(=O)C(C)C)s2)c(C(F)(F)F)c1 [CRT0105446, N-{5-[3-(4-Methoxy-2-trifluoromethyl-phenyl)-pyridin-4-yl]-hiazol-2-yl}-isobutyramide] | 99 | 83 | 100 | 0.6 | 3.9 | 100 | 78 | 100 | 88 | 100 | 99 | 93 | 100 | 74 | 49 | 89 | 100 | 100 | 81 | 86 | remaining binding at 10 µM [21]: 80%; remaining binding at 10 µM [22]: 92%; remaining binding at 10 µM [23]: 100%
2 | Cc1ccc(-c2cnccc2-c2cnc(Nc3ccc(O)cc3)s2)c(Cl)c1 [CRT0105950, 4-{5-[3-(2-Chloro-4-methyl-phenyl)-pyridin-4-yl]-thiazol-2-ylamino}-phenol] | 66 | 2.8 | 9.2 | 2 | 2 | 100 | 7.1 | 100 | 7.4 | 74 | 57 | 82 | 100 | 45 | 46 | 94 | 3.4 | 68 | 79 | 93 | remaining binding at 10 µM [21]: 100%; remaining binding at 10 µM [22]: 42%; remaining binding at 10 µM [23]: 43%
